Measured values taken from US20260083751A1, “ALLOSTERIC MODULATORS OF ANDROGEN RECEPTOR COACTIVATOR RECRUITMENT FOR CRPC THERAPY” (University of Pittsburgh – Of the Commonwealth System of …, priority 2022, published 2026).
“Also recorded” adds a separate entry of the source. Where two headings read alike, the source gives them in different places.

How the values were obtained:
Format in all cases: cell-based
[1] = system: DHT-induced AR-mediated PSA promoter-driven transcription in PC3-AR-FL-GFP cells; assay: PSA promoter-driven transcription in PC3-AR-FL-GFP cells
Procedure: Compounds 1-5 were assessed to determine whether each compound could block DHT-induced AR-TIF2 PPI (protein-protein interaction complex) formation and/or disrupt preformed DHT-induced AR-TIF2 PPIs. Additionally, the following activities were evaluated: • inhibition of DHT-induced AR-mediated PSA promoter-driven transcription in C4-2 CRPC cells; • inhibition of DHT-induced AR-LBD PPI interactions with TIF2 and SRC1 coactivators; • inhibition of DHT-induced AR-LBD PPI interactions with TIF2 Box III-LXXLL peptide; • inhibition of H^3-DHT binding to AR-LBD; • inhibition of DHT-induced AR-mediated PSA promoter-driven transcription in PC3-AR-FL-GFP cells; • inhibition of constitutive AR-V7-mediated PSA promoter-driven transcription in PC3-AR-V7 GFP cells; • inhibition of constitutive UBE2C promoter-driven transcription in PC3-AR-V7 GFP cells; • inhibition of growth in AR-negative prostate cancer (PCa) cell lines PC3 and DU145; and • inhibition of growth in AR-positive PCa cell lines LNCap, C4-2 (CRPC), and 22Rv1 (CRPC).

AR = biological target: T1, AR (Homo sapiens, UniProt P10275, T878A); assay: AlphaScreen cellular thermal shift assay (CETSA) for AR target engagement in C4-2 cells; settings: for DHT-enhanced AR stability at 46° C.: 20 μM and 50 μM compound; for Right shift of the DHT EC50: 20 or 50 μM compound; for AR thermal stability at 46° C., compound alone / DHT-induced (DHT-enhanced) AR thermal stability at 46° C.: C4-2 cells; for AR thermal stability at 46° C., compound alone: 20 μM where stated, 46° C. for 5 min; for DHT-induced (DHT-enhanced) AR thermal stability at 46° C.: compound 20 μM where stated, 10 nM DHT; for Maximum efficacy of DHT-enhanced AR thermal stabilization: S2-6 at 20 or 50 μM, S3-11 at 50 μM; for IC50: read-out: IC50, inhibition of DHT-induced AR stability at 46° C.
T1 construct: the amount of soluble AR protein in heat shocked C4-2 cell lysates; endogenous in cells; host or cells: C4-2 castration resistant prostate cancer cells
T1 sequence (P10275 1-920 T878A): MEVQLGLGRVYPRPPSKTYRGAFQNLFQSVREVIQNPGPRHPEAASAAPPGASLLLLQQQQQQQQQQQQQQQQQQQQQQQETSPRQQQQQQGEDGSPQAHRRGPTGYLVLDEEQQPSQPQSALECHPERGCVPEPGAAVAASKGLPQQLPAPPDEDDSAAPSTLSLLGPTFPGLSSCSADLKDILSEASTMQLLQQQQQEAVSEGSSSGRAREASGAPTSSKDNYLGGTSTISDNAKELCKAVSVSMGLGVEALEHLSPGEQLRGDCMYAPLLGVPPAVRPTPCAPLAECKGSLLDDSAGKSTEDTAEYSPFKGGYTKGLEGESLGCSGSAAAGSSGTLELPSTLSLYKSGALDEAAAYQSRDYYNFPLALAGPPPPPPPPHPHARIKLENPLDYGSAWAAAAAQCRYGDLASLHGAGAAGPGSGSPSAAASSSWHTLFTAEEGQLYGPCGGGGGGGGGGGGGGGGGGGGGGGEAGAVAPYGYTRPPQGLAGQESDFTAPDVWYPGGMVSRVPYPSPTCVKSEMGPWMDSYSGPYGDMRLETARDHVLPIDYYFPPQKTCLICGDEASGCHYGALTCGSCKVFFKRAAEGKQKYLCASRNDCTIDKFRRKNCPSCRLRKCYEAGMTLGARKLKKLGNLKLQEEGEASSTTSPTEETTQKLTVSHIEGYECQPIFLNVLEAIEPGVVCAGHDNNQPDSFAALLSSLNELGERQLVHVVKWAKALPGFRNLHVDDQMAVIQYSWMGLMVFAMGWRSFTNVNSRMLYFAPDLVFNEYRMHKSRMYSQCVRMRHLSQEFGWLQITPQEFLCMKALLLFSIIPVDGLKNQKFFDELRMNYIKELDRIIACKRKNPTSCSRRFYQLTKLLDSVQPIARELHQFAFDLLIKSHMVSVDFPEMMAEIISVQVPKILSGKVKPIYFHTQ
Procedure: Mouse anti-hAR (BD Biosciences, San Jose, CA) and rabbit anti-hAR (MilliporeSigma, Burlington, MA) were diluted 1:330 and 1:1000 fold respectively in PBS containing 0.5 mg/mL BSA and 4 μL of the combined diluted AR antibody pair were added to 4 μL of the cell lysate supernatant in a 384-well plate and incubated in the dark for 30 min at room temperature. To each well of the 384-well plate 4 μL of a combined solution of anti-mouse IgG Alpha Donor and anti-rabbit IgG (Fc specific) AlphaLISA® Acceptor beads (Perkin Elmer, Waltham, MA) suspended in 1× lysis buffer was added to yield a final donor and acceptor bead concentrations of 40 μg/mL and 10 μg/mL respectively.

TIF2 = biological target: T2, TIF2 (Homo sapiens, UniProt Q15596); assay: Western blotting cellular thermal shift assay for TIF2 in C4-2 cells; settings: 20 μM, TIF2 western blots
T2 construct: endogenous in cells; host or cells: C4-2 castration resistant prostate cancer cells
T2 sequence (Q15596 whole entry): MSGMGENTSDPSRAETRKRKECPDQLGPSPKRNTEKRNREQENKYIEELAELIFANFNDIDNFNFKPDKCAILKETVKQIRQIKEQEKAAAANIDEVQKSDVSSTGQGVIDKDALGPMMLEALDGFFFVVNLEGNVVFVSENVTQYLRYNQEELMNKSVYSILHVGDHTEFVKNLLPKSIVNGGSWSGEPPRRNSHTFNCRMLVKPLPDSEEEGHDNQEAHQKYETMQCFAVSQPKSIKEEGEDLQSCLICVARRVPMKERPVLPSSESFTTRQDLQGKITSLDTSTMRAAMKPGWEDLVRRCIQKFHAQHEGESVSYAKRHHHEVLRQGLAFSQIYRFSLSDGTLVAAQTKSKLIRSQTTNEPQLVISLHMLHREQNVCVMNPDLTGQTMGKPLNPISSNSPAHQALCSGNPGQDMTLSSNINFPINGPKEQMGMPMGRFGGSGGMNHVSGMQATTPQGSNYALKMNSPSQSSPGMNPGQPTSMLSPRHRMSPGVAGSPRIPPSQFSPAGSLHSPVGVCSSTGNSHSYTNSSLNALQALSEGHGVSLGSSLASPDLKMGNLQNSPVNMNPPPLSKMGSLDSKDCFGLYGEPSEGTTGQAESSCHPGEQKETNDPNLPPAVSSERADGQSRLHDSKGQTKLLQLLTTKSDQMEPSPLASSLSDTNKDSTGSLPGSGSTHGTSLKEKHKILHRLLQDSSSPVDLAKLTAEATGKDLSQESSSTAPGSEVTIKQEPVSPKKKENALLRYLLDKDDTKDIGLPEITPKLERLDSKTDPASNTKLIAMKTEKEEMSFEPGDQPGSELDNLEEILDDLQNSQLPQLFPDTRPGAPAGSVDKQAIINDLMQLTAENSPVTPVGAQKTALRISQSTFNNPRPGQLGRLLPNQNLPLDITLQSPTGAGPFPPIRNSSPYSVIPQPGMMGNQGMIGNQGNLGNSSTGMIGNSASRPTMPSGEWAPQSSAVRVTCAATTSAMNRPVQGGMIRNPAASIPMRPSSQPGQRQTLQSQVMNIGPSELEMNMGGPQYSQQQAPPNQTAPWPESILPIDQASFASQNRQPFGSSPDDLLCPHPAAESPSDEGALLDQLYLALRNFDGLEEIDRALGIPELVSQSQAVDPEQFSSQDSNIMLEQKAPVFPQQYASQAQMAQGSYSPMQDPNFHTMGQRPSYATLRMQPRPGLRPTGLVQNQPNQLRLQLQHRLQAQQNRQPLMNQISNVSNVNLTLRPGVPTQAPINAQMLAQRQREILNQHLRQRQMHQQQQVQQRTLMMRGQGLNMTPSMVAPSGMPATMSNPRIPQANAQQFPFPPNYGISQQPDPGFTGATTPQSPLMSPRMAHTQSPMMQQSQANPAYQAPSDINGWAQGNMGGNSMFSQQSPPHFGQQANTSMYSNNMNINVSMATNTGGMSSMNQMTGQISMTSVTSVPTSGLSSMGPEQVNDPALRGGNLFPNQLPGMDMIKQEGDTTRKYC
Procedure: Western Blotting Cellular Thermal Shift Assays for TIF2 and AR Target Engagement in C4-2 Cells: C4-2 cells were harvested by trypsinization, washed 1× by centrifugation at 270×g for 5 min and resuspension in PBS, counted, centrifugated at 270× g for 5 min and resuspended at 7×10^6 cells per mL in Opti-MEM medium (Gibco, Gaithersburg, MD). 50 μL of C4-2 cell suspension (3.5×10^5 cells) were then transferred to PCR tubes that were placed in a T-100 thermocycler (BioRad, Hercules, CA) and a 2° C. interval temperature step gradient from 37° C. to 53° C. was applied. Cells were maintained at each step of the temperature gradient for 5 min and then tubes were withdrawn and placed on ice. 50 μL of cell lysis buffer, 500 mM NaCl, 1% NP-40, 1× protease inhibitor cocktail in PBS were added to the heat shocked cell suspensions in PCR tubes and placed on ice for an additional 30 min. Cell lysates were then centrifuged at 14,000 RPM (18,800×g) at 4° C. for 15 min and supernatants were transferred to new tubes and protein concentrations were determined in a bicinchoninic acid (BCA) assay. 45 μL of cell lysis supernatants were mixed with 15 μL of 5×SDS-PAGE sample buffer and placed in a heat block at 100° C. for 5 min. The protein constituents of heat shocked C4-2 cell lysis supernatants were separated by SDS-PAGE on 8% separating gels, transferred to nitrocellulose membranes that were blocked for 1 h at room temperature in 5% non-fat milk in TBST, and then probed overnight at 4° C. with a 1:1000 dilution of either rabbit anti-AR (Cell Signaling, Danvers, MA) or rabbit anti-TIF2 (Bethyl Laboratories, Waltham, MA) primary antibodies in TBST containing 5% non-fat milk. Membranes were then washed 3× in TBST buffer for 10 min, then incubated with a 1:10,000 dilution of the goat anti-rabbit IgG HRP conjugated secondary antibody (Invitrogen, Carlsbad, CA) in TBST containing 5% non-fat milk for 1 h at room temperature. Western blots were then washed 3× in TBST buffer and developed with Pierce ECL western blotting substrate. Images of ECL western blots were acquired on an iBright™ 1500 imaging system and quantified using the iBright™ image analysis software.

SMILES | IC50 [1] | DHT-enhanced AR stability at 46° C. (AR) | AR thermal stability at 46° C., compound alone (AR) | IC50 (AR) | DHT-induced (DHT-enhanced) AR thermal stability at 46° C. (AR) | TIF2 thermal stability at 46° C. (TIF2) | other results
CC(=O)NCCC(=O)NCc1ccc2[nH]c(-c3ccccc3F)c(C)c2c1 [Compound S3-13] | > 100 µM | – | – | – | – | – | –
Cc1c(-c2ccccc2F)[nH]c2ccc(CNC(=O)CCc3cn[nH]c3)cc12 [Compound S3-11] | ~50 µM | inhibited DHT-enhanced AR stability | did not stabilize AR | 29.9 µM | blocked DHT-enhanced AR thermal stabilization; also recorded: inhibition of DHT-enhanced AR thermal stability | did not enhance TIF2 thermal stability; also recorded: do not enhance TIF2 thermal stability | Right shift of the DHT EC50 (AR): ≥ 10 fold; Maximum efficacy of DHT-enhanced AR thermal stabilization (AR): reduced the maximum efficacy of DHT
Cc1c(-c2ccccc2F)[nH]c2ccc(CNC(=O)c3ccc(CO)o3)cc12 [Compound S3-14] | ~50 µM | – | – | – | – | – | IC50 (AR; b133, unit inferred): 9.46 µM
Cc1cccc2c(-c3ccc(O)c(F)c3)c[nH]c12 [Compound S3-17] | ~50 µM | inhibited DHT-enhanced AR stability | – | 9.46 µM | – | – | –
Cc1c(-c2ccccc2F)[nH]c2ccc(CNC(=O)CCc3cnccn3)cc12 [Compound S3-12] | > 100 µM | – | – | 52.6 µM | – | – | –
CNC(=O)c1ccc(-c2c[nH]c3c(C)cccc23)cc1 [Compound S3-21] | > 100 µM | – | – | – | – | – | –

The next molecules have a lower IC50 [1] than those just listed; values first:

IC50 [1] | DHT-enhanced AR stability at 46° C. (AR) | AR thermal stability at 46° C., compound alone (AR) | IC50 (AR) | SMILES | DHT-induced (DHT-enhanced) AR thermal stability at 46° C. (AR) | TIF2 thermal stability at 46° C. (TIF2) | other results
< 44 µM | – | – | – | Cc1nc(N)cc(N2CCOc3c(O)cc(-c4ccccc4C)cc3C2)n1 [Compound S1-2] | – | – | –
< 44 µM | – | did not stabilize AR | – | Cc1ccccc1-c1cc(O)c2c(c1)CN(c1nc(C(N)=O)cs1)CCO2 [Compound S1-1] | blocked DHT-enhanced AR thermal stabilization; also recorded: inhibition of DHT-enhanced AR thermal stability | did not enhance TIF2 thermal stability; also recorded: do not enhance TIF2 thermal stability | –
~28 µM | inhibited DHT-enhanced AR stability | did not stabilize AR | 4.1 µM | Cc1nsc(NC(=O)N2CCC(Sc3ccccc3C)CC2)n1 [Compound S2-6] | blocked DHT-enhanced AR thermal stabilization; also recorded: inhibition of DHT-enhanced AR thermal stability | did not enhance TIF2 thermal stability; also recorded: do not enhance TIF2 thermal stability | Right shift of the DHT EC50 (AR): > 10 fold; AR thermal stability at 46° C., compound alone (AR; listed as 6): did not enhance AR stability; DHT-induced (DHT-enhanced) AR thermal stability at 46° C. (AR; listed as 6): inhibited DHT-induced AR stability; Maximum efficacy of DHT-enhanced AR thermal stabilization (AR): reduced the maximum efficacy of DHT-enhanced AR thermal stabilization; TIF2 thermal stability at 46° C. (TIF2; listed as 6): did not enhance TIF2 stability
~10 µM | – | – | 86.1 µM | Cc1c(-c2ccc(F)cc2)[nH]c2ccc(CNC(=O)c3ccc(CO)o3)cc12 [Compound S3-15] | – | – | –
